The test system of one data set is LTC4 release. Nature of the data set: LTC4 release from SCF-stimulated bone marrow-derived mast cells (BMMC), enzyme immunoassay. As to conditions: Mus musculus, SCF 100 ng/ml stimulation, read-out: LTC4 release inhibition (IC50). In kind it is cell-based, Balb/c mice. The protocol:
BMMC were obtained from male Balb/c mice and cultured for up to 4 weeks in 50% enriched medium (RPMI containing 2 mM L-glutamine, 25 mM HEPES buffer, 2 mg/ml sodium bicarbonate, 100 units/ml penicillin G, 100 μg/ml streptomycin sulfate, 0.25 μg/ml amphotericin B) supplemented with 10% fetal bovine serum with IL-3 (Sigma I4144, 2 ng/ml) (Murakami M et al., J. Bio. Chem., 39, pp 22653-22656, 1995). 3 weeks after the culture, more than 98% of BMMC was found in the cells as assessed by staining method with toluidine blue.
BMMC were suspended in the enriched medium at the cell density of 1×10^6 cells/ml, and were then incubated in a humidified 5% CO2 incubator with or without sample in DMSO (final DMSO concentration was less than 0.5%) for 30 min at 37° C. After the stimulation with stem cell factor (SCF, Sigma S9915, 100 ng/ml) for 20 min, the LTC4 release in supernatants was measured by an enzyme immunoassay kit (Cayman Chemical, Ann Arbor, Mich., U.S.A.) according to the manufacturer's instructions. All the experiments were carried out in triplicate and the inhibition of LTC4 release was determined by calculating % reduction of LTC4 release from the control (Lee S H et al., Biol. Pharm. Bull., 27, pp 786-788, 2004). […]

Data set [1] relates to OVA-induced asthmatic mice. Nature of the data set: Airway hyperresponsiveness (AHR), whole-body plethysmography, OVA-induced asthmatic mice. In kind it is in vivo. The following applies: for Penh value: tiarellic acid and zileuton 30 mg/ml, po; for Penh value / AHR compared with OVA-treated group: OVA-challenged mice, in words. The protocol:
Groups of mice (n=5-6) were studied; they received the following treatment: (1) sham-sensitization plus challenge with phosphate-buffered saline (PBS; ipNeb); (2) sensitization plus challenge with OVA (ovalbumin: Sigma A5503; Sigma, St. Louis, Mo.) (ipNeb); (3) sensitization with OVA (ip) plus challenge with OVA (Neb) and samples ([…] or zileuton, po). Briefly, mice were sensitized with intraperitoneal injection of 20 μg OVA, which was emulsified with 2 mg of aluminum hydroxide in 100 μl of PBS buffer (pH 7.4) on days 0 and 11. The mice were challenged through the airways with OVA (1% in PBS) for 20 min using an ultrasonic nubuilizer (NE-U12; Omron Corp., Tokyo, Japan) on days 19, 20, 21 and 25 after the initial sensitization. The mice were sacrificed 48 hours after the last challenge (day 27) to determine the suppressive effect of extract of T. polyphylla and […] on the airways of allergic asthma. 24 hours after the final aerosol challenge AHR was measured by using a whole-body plethysmography (OCP3000; Allmedicus, Korea)(Hamelmann E et al., Am J Respir Crit. Care Med., 156, pp 766-775, 1997). […] Bronchoconstriction was recorded for additional 5 mins at each concentration. The highest Penh value of each sample was obtained during each methacholine challenge, and expressed as a percentage of a basal Penh value in response to control (PBS) challenge.

The subject of the next data set is OVA-specific IgE. Description: OVA-specific IgE in plasma of OVA-induced asthmatic mice (ELISA). In kind it is in vivo. The following applies: Mus musculus, 48 hours after last challenge, 30 mg/ml, vs OVA-control. How it is done:
Groups of mice (n=5-6) were studied; they received the following treatment: (1) sham-sensitization plus challenge with phosphate-buffered saline (PBS; ipNeb); (2) sensitization plus challenge with OVA (ovalbumin: Sigma A5503; Sigma, St. Louis, Mo.) (ipNeb); (3) sensitization with OVA (ip) plus challenge with OVA (Neb) and samples (tiarellic acid or zileuton, po). Briefly, mice were sensitized with intraperitoneal injection of 20 μg OVA, which was emulsified with 2 mg of aluminum hydroxide in 100 μl of PBS buffer (pH 7.4) on days 0 and 11. The mice were challenged through the airways with OVA (1% in PBS) for 20 min using an ultrasonic nubuilizer (NE-U12; Omron Corp., Tokyo, Japan) on days 19, 20, 21 and 25 after the initial sensitization. […]
48 hours after the last challenge, the mice were sacrificed with an overdose of pentobarbital (Sigma P3761), and a tracheotomy was performed. […] The amount of IL-4, IL-5 and IL-13 in BALF was measured by a specific mouse ELISA kit (R&D Systems; Minneapolis, Minn.) according to the manufacturer's instructions. […]
Plasma was obtained by cardiac puncture after the tracheotomy. […] IgE levels in each sample were measured the optical density readings at 450 nm, and OVA-specific IgE concentrations were calculated from a standard curve, which was generated in case recombinant IgE (5-2,000 ng/ml) was used.

Another data set concerns IL-4. Nature of the data set: IL-4 level in BALF of OVA-induced asthmatic mice (ELISA). Format: in vivo. The following applies: 30 mg/ml; for IL-4: 48 hours after last challenge; for inhibition at 30000 µg/mL: Mus musculus, vs OVA-control. How it is done:
(§1) Groups of mice (n=5-6) were studied; they received the following treatment: (1) sham-sensitization plus challenge with phosphate-buffered saline (PBS; ipNeb); (2) sensitization plus challenge with OVA (ovalbumin: Sigma A5503; Sigma, St. Louis, Mo.) (ipNeb); (3) sensitization with OVA (ip) plus challenge with OVA (Neb) and samples (tiarellic acid or zileuton, po). Briefly, mice were sensitized with intraperitoneal injection of 20 μg OVA, which was emulsified with 2 mg of aluminum hydroxide in 100 μl of PBS buffer (pH 7.4) on days 0 and 11. The mice were challenged through the airways with OVA (1% in PBS) for 20 min using an ultrasonic nubuilizer (NE-U12; Omron Corp., Tokyo, Japan) on days 19, 20, 21 and 25 after the initial sensitization. The mice were sacrificed 48 hours after the last challenge (day 27) to determine the suppressive effect of extract of T. polyphylla and tiarellic acid on the airways of allergic asthma.
(§2) 48 hours after the last challenge, the mice were sacrificed with an overdose of pentobarbital (Sigma P3761), and a tracheotomy was performed. After ice-cold PBS (0.5 ml) was instilled into the lungs, bronchoalveolar lavage fluid (BALF) was obtained by aspiration three times (total 1.5 ml) via tracheal cannulation. BALF was centrifuged and supernatants were collected and stored at −70° C. before use. The amount of IL-4, IL-5 and IL-13 in BALF was measured by a specific mouse ELISA kit (R&D Systems; Minneapolis, Minn.) according to the manufacturer's instructions. The detection limit of the assays was 250 pg/ml.
(§3) To determine the effect of extract of T. polyphylla and tiarellic acid on the cytokine release in the OVA-induced asthmatic mice, 48 hours after the last challenge, the levels of cytokines (IL-4, IL-5 and IL-13) in BALF were measured by using ELISA method.

For the next data set, the system named is IL-5. Description: IL-5 level in BALF of OVA-induced asthmatic mice (ELISA). In kind it is in vivo. The following applies: 30 mg/ml; for IL-5: 48 hours after last challenge; for inhibition at 30000 µg/mL: Mus musculus, vs OVA-control. The protocol: as §1, §2, §3
The subject of another data set is IL-13. Description: IL-13 level in BALF of OVA-induced asthmatic mice (ELISA). The following applies: 30 mg/ml; for IL-13: 48 hours after last challenge; for inhibition at 30000 µg/mL: Mus musculus, vs OVA-control. Format: in vivo. The protocol:
as §1, §2, §3

Another data set has as its system OVA-induced mice. Description: OVA-induced inflammation in lung tissue (H&E histology, inflammation score). In kind it is in vivo. The protocol:
Groups of mice (n=5-6) were studied; they received the following treatment: (1) sham-sensitization plus challenge with phosphate-buffered saline (PBS; ipNeb); (2) sensitization plus challenge with OVA (ovalbumin: Sigma A5503; Sigma, St. Louis, Mo.) (ipNeb); (3) sensitization with OVA (ip) plus challenge with OVA (Neb) and samples (tiarellic acid or zileuton, po). Briefly, mice were sensitized with intraperitoneal injection of 20 μg OVA, which was emulsified with 2 mg of aluminum hydroxide in 100 μl of PBS buffer (pH 7.4) on days 0 and 11. […]
The lung tissue was fixed for 24 hours on 10% neutral-buffered formalin. […] The degree of cell infiltration in the airway was scored in a double-blind test performed by two independent investigators (Myou S et al., J. Exp. Med., 198, pp 1573-1582, 2003). The peri-bronchiole and peri-vascular inflammation was evaluated by specific standard, i.e., scoring of 0-3, 0, no cells; 1, a few cells; 2, a ring of cells 1 to 5 cell-layer deep; 3, a thick ring of cells more than 5 cell-layer deep. To evaluate the suppressive effect of T. polyphylla extract and tiarellic acid on the leukocyte infiltration, the degree of inflammation was scored by quantitative analysis in lung tissues 48 hours after the last challenge (See FIG. 2).

Another data set relates to ICR rat. Description: Carageenan-induced rat-paw edema. Format: in vivo. The following applies: for The thickness ratio of ankle (%) / inhibition at 50 mg/kg: 50 mg/kg; for inhibition at 50 mg/kg: Rattus norvegicus, paw edema. How it is done:
The inhibiting activity of the extract of T. polyphylla and […] prepared from the above Examples on the edema formation in ICR rat was determined as follows. The mice were divided into three groups consisting of 6 rats for each group, i.e., T1 treated with only solvent as a negative control group, T2 treated with 50 mg/kg of the extract of T. polyphylla, T3 treated with 50 mg/kg of aspirin respectively. 1 hour after the treatment, 1% […] solution was injected into inner rat ankle to induce edema and the thickness of ankle was measured by Vernier's caliper to determine the degree of the edema. The determined thickness was calculated by following Math Fig. 1. The thickness ratio of ankle(%)=[(maximum thickness of rat paw edema)-(the thickness of pre-treated rat paw edema)/(the thickness of pre-treated rat paw edema)]×100 MathFigure 1

The next data set has as its system HL-60 cells. The following applies: human, 4 h.

Each structure is given as a SMILES string. Where two headings read alike, the source gives them in different places.

From US7763286B2, “Composition comprising an extract of Tiarella polyphylla and tiarellic acid isolated therefrom having antiinflammatory, antiallergic and antiasthmatic activity” (Korea Research Institute of Bioscience and Biotechnology, priority 2005, dated 2010) come the findings set out here.

Protocol for HL-60 cells: Promyelotic HL-60 cells (HL-18103, 5×10^5 cells/ml) were seeded on 96-well plates under NGF-free condition. […] 4 hours later, MTT was removed and 100 μl of DMSO was dropped into each well to dissolve crystals. UV absorbance was measured by microplate reader (BIO-RAD, U.S.A.) at 570 nm to calculate the cell viability.

`CC(c1cc2ccccc2s1)N(O)C(N)=O` (centres unmarked) [zileuton]: the IC50 with LTC4 release turned out to be 110 nM. Also, the Penh value amounted to 0.55 ± 0.14 in [1] (Metacholine 0 mg/ml), 1.17 ± 0.59 in [1] (Metacholine 5 mg/ml), 1.97 ± 0.83 in data set [1] (Metacholine 10 mg/ml) and 2.49 ± 0.90 in [1] (Metacholine 20 mg/ml). In addition, the “Penh value / AHR compared with OVA-treated group” value in data set [1] is on record as “showed a decrease of AHR but less than tiarellic acid”. The inhibition at 30000 µg/mL with OVA-specific IgE is 45.8%; with IL-4, 18.7%; in the data set on IL-5, 12.5%; with IL-13 it was 10.3%. In the data set on IL-4, the “IL-4” value stood at 289.5 ± 59.0 pg/mL. Also, the “IL-5” value with IL-5 stood at 157.8 ± 41.3 pg/mL. Besides, in the data set on IL-13, the “IL-13” value was 130.1 ± 16.8 pg/mL.
As to `C=C(C)[C@@H]1CC[C@]2(C)CC[C@]3(C(=O)O)C(CCC4[C@@]5(C)CC[C@H](O)[C@@](C)(CO)C5CC[C@]43C)C12` (some centres unmarked) [Tiarellic acid, tiarellic acid], the IC50 with LTC4 release was 2490 nM. In addition, the Penh value was 0.46 ± 0.08 in [1] (Metacholine 0 mg/ml), 0.96 ± 0.45 in data set [1] (Metacholine 5 mg/ml), 1.54 ± 0.74 in [1] (Metacholine 10 mg/ml) and 2.15 ± 0.52 in [1] (Metacholine 20 mg/ml). Further, the “Penh value / AHR compared with OVA-treated group” value in [1] was “significantly reduced”. Further, the inhibition at 30000 µg/mL was 48.8% with OVA-specific IgE, 90.5 ± 4% in the data set on IL-4, 54.6 ± 23% in the data set with IL-5 and 43.7 ± 28.2% in the data set on IL-13. Besides, in the data set on IL-4, the “IL-4” value was found to be 33.8 ± 14.3 pg/mL. In addition, in the data set on IL-5, the “IL-5” value worked out at 81.9 ± 41.4 pg/mL. Also, in the data set on IL-13, the “IL-13” value amounted to 81.7 ± 40.9 pg/mL. Besides, in the data set on OVA-induced mice (H&E staining of lung tissues, compared with OVA-treated mice), the “infiltration of eosinophil-rich leukocytes” value is given as “significantly attenuated”. The “suppressive effect on the inflammation in the lung tissues” value with OVA-induced mice (OVA-induced mice, 48 hours after last challenge) is recorded as “most potent suppressive effect”. In addition, the “inhibition effect on rat paw edema” value in the data set with ICR rat (in words) was “potent inhibition effect”. Also, the “Cell viability (%)” value was found to be 100% in the data set with HL-60 cells (50 μM) and 102% in the data set on HL-60 cells (100 μM).
Take `CC(=O)Oc1ccccc1C(=O)O` [aspirin]: the “The thickness ratio of ankle (%)” value with ICR rat (1 hr) came to 139.3 ± 40.6%; with ICR rat (2 hr), 170.4 ± 34.5%; in the data set with ICR rat (3 hr), 180.6 ± 28.6%; in the data set on ICR rat (4 hr), 196.9 ± 15.4%; in the data set with ICR rat (5 hr), 198.5 ± 12.6%. Further, the inhibition at 50 mg/kg is -16.8 ± 34% in the data set with ICR rat (1 hr); -7.8 ± 21.8% in the data set on ICR rat (2 hr); 7.3 ± 14.7% in the data set with ICR rat (3 hr); 4.3 ± 7.5% in the data set with ICR rat (4 hr); 1.5 ± 6.3% in the data set on ICR rat (5 hr).
